In patent publication US10941121B2 (AZIENDA OSPEDALIERA UNIVERSITARIA SENESE, priority 2015, dated 2021):

Assays:
ATPase DDX3 = target: T1, ATPase DDX3 (Homo sapiens, UniProt O00571); experiment: Selectivity of 20a: ATPase DDX3; type: biochemical; details: >200 = less than 20% of inhibition at 200 μM, the highest concentration tested
T1 construct: made in house; host or cells: E. coli

DDX1 = target: T2, DDX1 (Homo sapiens, UniProt Q92499); experiment: Selectivity of 20a: DDX1; type: biochemical; details: >200 = less than 20% of inhibition at 200 μM, the highest concentration tested
T2 sequence (Q92499 1-740): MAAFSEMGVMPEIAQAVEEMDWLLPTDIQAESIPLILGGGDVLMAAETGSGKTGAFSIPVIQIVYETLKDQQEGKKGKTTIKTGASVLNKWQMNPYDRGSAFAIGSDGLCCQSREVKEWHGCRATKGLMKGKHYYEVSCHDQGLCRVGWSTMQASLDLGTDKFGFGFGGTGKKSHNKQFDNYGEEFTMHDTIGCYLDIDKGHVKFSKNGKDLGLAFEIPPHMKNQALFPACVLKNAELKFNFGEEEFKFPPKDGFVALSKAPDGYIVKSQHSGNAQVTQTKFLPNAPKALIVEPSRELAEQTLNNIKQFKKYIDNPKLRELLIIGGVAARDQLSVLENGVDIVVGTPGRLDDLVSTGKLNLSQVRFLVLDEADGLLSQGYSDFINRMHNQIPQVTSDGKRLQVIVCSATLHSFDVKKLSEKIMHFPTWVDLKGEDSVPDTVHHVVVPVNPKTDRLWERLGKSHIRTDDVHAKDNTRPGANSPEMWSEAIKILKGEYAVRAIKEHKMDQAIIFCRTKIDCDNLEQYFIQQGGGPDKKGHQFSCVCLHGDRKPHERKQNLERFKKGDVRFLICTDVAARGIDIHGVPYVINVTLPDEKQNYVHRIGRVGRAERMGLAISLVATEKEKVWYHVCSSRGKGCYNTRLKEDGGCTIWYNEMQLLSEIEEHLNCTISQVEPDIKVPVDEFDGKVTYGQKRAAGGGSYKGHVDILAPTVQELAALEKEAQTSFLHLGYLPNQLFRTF

[1] = system: HCV Jc1 (genotype 2a virus); experiment: HCV infectious cell culture system, NS5A immunostaining; details: Hepatitis C virus, Huh7.5, read-out: HCV EC50
[2] = system: human liver microsome (HLM); experiment: Microsomal Stability Assay; details: human liver microsomes, 37 °C, 60 min, compound 50 μM; percentage of not metabolized compound
[3] = Cytotoxicity in Huh7 cells, nuclei counts; details: human

T1 sequence (O00571 whole entry): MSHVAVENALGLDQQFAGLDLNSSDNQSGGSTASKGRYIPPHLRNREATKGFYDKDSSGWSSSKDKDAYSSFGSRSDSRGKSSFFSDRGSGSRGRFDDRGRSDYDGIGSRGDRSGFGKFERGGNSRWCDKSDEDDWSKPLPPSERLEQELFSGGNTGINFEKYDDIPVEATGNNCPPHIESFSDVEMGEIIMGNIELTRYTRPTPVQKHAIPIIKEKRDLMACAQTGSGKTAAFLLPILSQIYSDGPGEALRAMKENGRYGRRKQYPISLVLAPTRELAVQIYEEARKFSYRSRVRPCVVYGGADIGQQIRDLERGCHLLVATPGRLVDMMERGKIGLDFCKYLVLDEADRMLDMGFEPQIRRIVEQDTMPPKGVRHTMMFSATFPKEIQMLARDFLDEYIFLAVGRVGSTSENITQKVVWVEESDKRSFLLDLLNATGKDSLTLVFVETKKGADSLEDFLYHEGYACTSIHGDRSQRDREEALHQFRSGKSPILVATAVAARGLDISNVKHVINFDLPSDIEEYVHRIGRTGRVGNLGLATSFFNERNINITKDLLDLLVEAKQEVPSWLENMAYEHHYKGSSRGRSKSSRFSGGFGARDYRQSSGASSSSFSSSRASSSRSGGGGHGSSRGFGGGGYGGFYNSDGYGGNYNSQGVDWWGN

**Q.** Which results are given for `CCCCc1cn(-c2ccc(NC(=O)Nc3ccccc3C)cc2)nn1` [Compound 20a, 1-(4-(4-butyl-1H-1,2,3-triazol-1-yl)phenyl)-3-o-tolylurea]?
**A.** IC50 (ATPase DDX3): > 200 µM; IC50 (DDX1): > 200 µM; EC50 [1]: 3.8 µM; Metabolic stability (Sability %) [2]: 99%; CC50 at 48 h ([3]; DENV CC50, Huh7 cells, DENV experiment): > 787 µM; CC50 at 48 h ([3]; WNV CC50, Huh7 cells, WNV experiment): > 500 µM
